According to US20230265151A1, “GIP/GLP1 CO-AGONIST COMPOUNDS” (priority 2020, published 2023):
Where two headings read alike, the source gives them in different places.

Key:
Type in all cases: cell-based
hGIPR = biological target: T1, hGIPR (Homo sapiens, UniProt P48546); assay: Functional cAMP formation (HTRF) in HEK-293 clonal cells expressing hGIPR, 0.1% bovine casein, without or with 1.0% human serum albumin; settings: for EC50: cAMP, 0.1% bovine casein (no human serum albumin), geometric mean
T1 construct: expressed in transfected cells
T1 sequence (P48546 22-466): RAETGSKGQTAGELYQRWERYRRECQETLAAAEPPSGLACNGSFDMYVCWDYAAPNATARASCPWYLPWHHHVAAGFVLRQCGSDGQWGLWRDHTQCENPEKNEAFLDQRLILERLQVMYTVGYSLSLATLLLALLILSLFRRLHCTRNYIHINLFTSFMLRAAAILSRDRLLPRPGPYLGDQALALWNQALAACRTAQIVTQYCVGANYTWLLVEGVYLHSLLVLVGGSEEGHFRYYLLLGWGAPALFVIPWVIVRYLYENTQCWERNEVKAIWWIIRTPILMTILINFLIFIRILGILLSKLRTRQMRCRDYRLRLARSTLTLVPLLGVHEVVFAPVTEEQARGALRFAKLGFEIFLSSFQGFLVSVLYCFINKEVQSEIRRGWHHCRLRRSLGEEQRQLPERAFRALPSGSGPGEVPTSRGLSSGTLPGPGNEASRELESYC
In short: (§1)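 Readings of the HTRF 665/620 nm ratio, which falls as cAMP rises, were converted to nM cAMP using a standard curve after 30 min peptide exposure at 37° C.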

hGCGR = biological target: T2, hGCGR (Homo sapiens, UniProt P47871); assay: Functional cAMP formation (HTRF) in HEK-293 clonal cells expressing hGCGR, 0.1% bovine casein, without or with 1.0% human serum albumin
T2 construct: expressed in transfected cells
T2 sequence (P47871 26-477): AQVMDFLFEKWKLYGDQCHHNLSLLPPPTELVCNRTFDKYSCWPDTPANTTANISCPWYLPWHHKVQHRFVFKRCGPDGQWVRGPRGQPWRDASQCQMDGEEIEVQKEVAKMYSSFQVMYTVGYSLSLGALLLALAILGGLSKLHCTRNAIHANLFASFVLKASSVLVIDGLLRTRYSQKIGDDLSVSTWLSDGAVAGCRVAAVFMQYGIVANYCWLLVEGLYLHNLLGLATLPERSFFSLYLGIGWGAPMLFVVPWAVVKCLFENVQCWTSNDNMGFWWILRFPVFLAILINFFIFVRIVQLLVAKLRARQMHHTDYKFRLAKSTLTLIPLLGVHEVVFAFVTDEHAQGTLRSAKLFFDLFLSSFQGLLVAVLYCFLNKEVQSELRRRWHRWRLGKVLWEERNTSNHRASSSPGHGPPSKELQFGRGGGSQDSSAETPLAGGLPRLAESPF
In short: as §1

hGLP-1R = hGLP-1R (Homo sapiens, UniProt P43220); assay: Functional cAMP formation (HTRF) in HEK-293 clonal cells expressing hGLP-1R, 0.1% bovine casein, without or with 1.0% human serum albumin; set-up: expressed in transfected cells; settings: for Emax: percent of maximal response to GLP-1(7-36)NH2
Chain of hGLP-1R (P43220 24-463): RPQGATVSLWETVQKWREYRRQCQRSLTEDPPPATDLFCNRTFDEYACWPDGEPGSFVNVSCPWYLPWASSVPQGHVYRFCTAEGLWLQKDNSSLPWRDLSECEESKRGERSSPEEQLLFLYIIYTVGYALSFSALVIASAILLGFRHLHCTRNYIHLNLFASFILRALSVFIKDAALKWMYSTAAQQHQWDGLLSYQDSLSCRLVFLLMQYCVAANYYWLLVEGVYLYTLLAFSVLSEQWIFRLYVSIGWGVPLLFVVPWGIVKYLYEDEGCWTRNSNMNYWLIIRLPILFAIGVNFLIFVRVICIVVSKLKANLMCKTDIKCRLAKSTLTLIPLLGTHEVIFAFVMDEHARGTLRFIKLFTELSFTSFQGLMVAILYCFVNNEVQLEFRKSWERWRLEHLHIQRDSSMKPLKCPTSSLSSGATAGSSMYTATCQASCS
In short: as §1

[1] = 37° C., read-out: hGIPR EC50, nM (SEM, n)
[2] = cAMP, 37° C., 0.1% bovine casein (no human serum albumin), geometric mean, read-out: hGCGR EC50, nM (SEM, n)
[3] = cAMP, 37° C., 0.1% bovine casein (no human serum albumin), geometric mean, read-out: hGLP-1R EC50, nM (SEM, n)

## CC[C@H](C)[C@H](NC(=O)[C@H](CC(C)C)NC(=O)[C@](C)(Cc1ccc(O)cc1)NC(=O)[C@H](CCCCNC(=O)COCCOCCNC(=O)CCCCCCCNC(=O)CC[C@H](NC(=O)CCCCCCCCCCCCC(=O)O)C(=O)O)NC(=O)[C@@H](NC(=O)[C@H](Cc1ccccc1)NC(=O)[C@H](CCCN)NC(=O)C(C)(C)NC(=O)[C@H](CCC(N)=O)NC(=O)[C@H](C)NC(=O)[C@H](CCC(N)=O)NC(=O)[C@H](CCCN)NC(=O)[C@H](CC(=O)O)NC(=O)[C@H](CC(C)C)NC(=O)[C@](C)(CC(C)C)NC(=O)[C@@H](NC(=O)C(C)(C)NC(=O)[C@H](Cc1ccncc1)NC(=O)[C@H](CC(=O)O)NC(=O)[C@H](CO)NC(=O)[C@@H](NC(=O)[C@](C)(Cc1ccccc1F)NC(=O)[C@@H](NC(=O)CNC(=O)[C@H](CCC(=O)O)NC(=O)C(C)(C)NC(=O)[C@@H](N)Cc1ccc(O)cc1)[C@@H](C)O)[C@@H](C)O)[C@@H](C)CC)[C@@H](C)CC)C(=O)N[C@@H](CCCCNC(=O)COCCOCCNC(=O)CCCCCCCNC(=O)CC[C@H](NC(=O)CCCCCCCCCCCCC(=O)O)C(=O)O)C(=O)NCC(=O)NCC(=O)N1CCC[C@H]1C(=O)N[C@@H](CO)C(=O)N[C@@H](CO)C(=O)NCC(=O)N[C@@H](C)C(=O)N1CCC[C@H]1C(=O)N1CCC[C@H]1C(=O)N1CCC[C@H]1C(=O)N[C@@H](CO)C(N)=O [Example 450]
hGIPR; HEK293, cAMP, 37° C., 0.1% bovine casein and 1.0% human serum albumin, percent of maximal response to GIP(1-42)NH2, read-out: hGIPR Emax, % ± SEM
  Emax: 91.4%
hGIPR; [1]
  EC50: 0.0138 nM
hGCGR; [2]
  EC50: > 9950 nM
hGCGR; cAMP, 37° C., 0.1% bovine casein and 1.0% human serum albumin, geometric mean (SEM, n), read-out: hGCGR EC50, nM (SEM, n)
  EC50: > 9950 nM
hGLP-1R; HEK293, cAMP, 37° C., 0.1% bovine casein, arithmetic mean, read-out: hGLP-1R Emax, % ± SEM
  Emax: 120%
hGLP-1R; [3]
  EC50: 0.201 nM
hGLP-1R; cAMP, 37° C., 0.1% bovine casein and 1.0% human serum albumin, geometric mean (SEM, n), read-out: hGLP-1R EC50, nM (SEM, n)
  EC50: 32.3 nM

## CC[C@H](C)[C@H](NC(=O)[C@H](CC(C)C)NC(=O)[C@](C)(Cc1ccc(O)cc1)NC(=O)[C@@H](CCC(=O)O)NC(=O)[C@@H](NC(=O)[C@H](Cc1ccccc1)NC(=O)[C@H](CCC(=O)O)NC(=O)C(C)(C)NC(=O)[C@H](CCC(N)=O)NC(=O)[C@H](C)NC(=O)[C@H](CCCCNC(=O)COCCOCCNC(=O)COCCOCCNC(=O)CC[C@H](NC(=O)CCCCCCCCCCCCC(=O)O)C(=O)O)NC(=O)[C@H](CCCN)NC(=O)[C@H](CC(=O)O)NC(=O)[C@H](CC(C)C)NC(=O)[C@](C)(CC(C)C)NC(=O)[C@@H](NC(=O)[C@H](CO)NC(=O)[C@H](Cc1ccncc1)NC(=O)[C@H](CC(=O)O)NC(=O)[C@H](CO)NC(=O)[C@@H](NC(=O)[C@](C)(Cc1ccccc1F)NC(=O)[C@@H](NC(=O)CNC(=O)[C@H](CCC(=O)O)NC(=O)C(C)(C)NC(=O)[C@@H](N)Cc1ccc(O)cc1)[C@@H](C)O)[C@@H](C)O)[C@@H](C)CC)[C@@H](C)CC)C(=O)N[C@@H](CCC(=O)O)C(=O)NCC(=O)NCC(=O)N[C@@H](CCCCNC(=O)COCCOCCNC(=O)COCCOCCNC(=O)CC[C@H](NC(=O)CCCCCCCCCCCCC(=O)O)C(=O)O)C(=O)N[C@@H](CO)C(=O)N[C@@H](CO)C(=O)NCC(=O)N[C@@H](C)C(=O)N1CCC[C@H]1C(=O)N1CCC[C@H]1C(=O)N1CCC[C@H]1C(=O)N[C@@H](CCCN)C(N)=O [Example 154]
hGIPR; HEK293, 0.1% bovine casein and 1.0% human serum albumin, 37° C., percent of maximal response to GIP(1-42)NH2, read-out: hGIPR Emax, % ± SEM
  Emax: 93 ± 4.96%
hGIPR; HEK293, percent of maximal response to GIP(1-42)NH2, 37° C., 0.1% bovine casein, arithmetic mean, read-out: hGIPR Emax, % ± SEM
  Emax: 96.6 ± 3.26%
hGCGR; 0.1% bovine casein and 1.0% human serum albumin, 37° C., geometric mean, read-out: hGCGR EC50, nM (SEM, n)
  EC50: > 9950 nM
hGCGR; cAMP, incubated at 37° C., 0.1% bovine casein (no human serum albumin), geometric mean, read-out: hGCGR EC50, nM (SEM, n)
  EC50: > 9950 nM
hGLP-1R; 0.1% bovine casein and 1.0% human serum albumin, 37° C., geometric mean, read-out: hGLP-1R EC50, nM (SEM, n)
  EC50: 70.5 nM
hGLP-1R; cAMP, incubated at 37° C., 0.1% bovine casein (no human serum albumin), geometric mean, read-out: hGLP-1R EC50, nM (SEM, n)
  EC50: 1.69 nM

## CC[C@H](C)[C@H](NC(=O)[C@H](CC(C)C)NC(=O)[C@](C)(Cc1ccc(O)cc1)NC(=O)[C@@H](CCC(=O)O)NC(=O)[C@@H](NC(=O)[C@H](Cc1ccccc1)NC(=O)[C@H](CCC(=O)O)NC(=O)C(C)(C)NC(=O)[C@H](CCC(N)=O)NC(=O)[C@H](C)NC(=O)[C@H](CCCCNC(=O)COCCOCCNC(=O)COCCOCCNC(=O)CC[C@H](NC(=O)CCCCCCCCCOc1ccc(C(=O)O)cc1)C(=O)O)NC(=O)[C@H](CCCN)NC(=O)[C@H](CC(=O)O)NC(=O)[C@H](CC(C)C)NC(=O)[C@](C)(CC(C)C)NC(=O)[C@@H](NC(=O)C(C)(C)NC(=O)[C@H](Cc1ccncc1)NC(=O)[C@H](CC(=O)O)NC(=O)[C@H](CO)NC(=O)[C@@H](NC(=O)[C@](C)(Cc1ccccc1F)NC(=O)[C@@H](NC(=O)CNC(=O)[C@H](CCC(=O)O)NC(=O)C(C)(C)NC(=O)[C@@H](N)Cc1ccc(O)cc1)[C@@H](C)O)[C@@H](C)O)[C@@H](C)CC)[C@@H](C)CC)C(=O)N[C@@H](CCCCNC(=O)COCCOCCNC(=O)COCCOCCNC(=O)CC[C@H](NC(=O)CCCCCCCCCOc1ccc(C(=O)O)cc1)C(=O)O)C(=O)NCC(=O)NCC(=O)N1CCC[C@H]1C(=O)N[C@@H](CO)C(=O)N[C@@H](CO)C(=O)NCC(=O)N[C@@H](C)C(=O)N1CCC[C@H]1C(=O)N1CCC[C@H]1C(=O)N1CCC[C@H]1C(=O)N[C@@H](CO)C(N)=O [Example 244]
hGIPR; HEK293, read-out: hGIPR Emax, % ± SEM, 0.1% bovine casein and 1.0% human serum albumin, 37° C., percent of maximal response to GIP(1-42)NH2
  Emax: 89.5%
hGIPR; hGIPR EC50, nM (SEM, n), incubated at 37° C.
  EC50: 0.0218 nM
hGCGR; hGCGR EC50, nM (SEM, n), 0.1% bovine casein and 1.0% human serum albumin, 37° C., geometric mean
  EC50: > 9950 nM
hGCGR; hGCGR EC50, nM (SEM, n), cAMP, incubated at 37° C., 0.1% bovine casein (no human serum albumin), geometric mean
  EC50: > 9950 nM
hGLP-1R; HEK293, read-out: hGLP-1R Emax, % ± SEM, 0.1% bovine casein and 1.0% human serum albumin, 37° C.
  Emax: 96.3%
hGLP-1R; hGLP-1R EC50, nM (SEM, n), cAMP, incubated at 37° C., 0.1% bovine casein (no human serum albumin), geometric mean
  EC50: 2.25 nM

## CC[C@H](C)[C@H](NC(=O)[C@H](CC(C)C)NC(=O)[C@](C)(Cc1ccc(O)cc1)NC(=O)[C@@H](CCC(=O)O)NC(=O)[C@@H](NC(=O)[C@H](Cc1ccccc1)NC(=O)[C@H](CCC(=O)O)NC(=O)C(C)(C)NC(=O)[C@H](CCC(N)=O)NC(=O)[C@H](C)NC(=O)[C@H](CCCCNC(=O)COCCOCCNC(=O)CC[C@H](NC(=O)CCCCCCCCCCCCC(=O)O)C(=O)O)NC(=O)[C@H](CCCN)NC(=O)[C@H](CC(=O)O)NC(=O)[C@H](CC(C)C)NC(=O)[C@](C)(CC(C)C)NC(=O)[C@@H](NC(=O)C(C)(C)NC(=O)[C@H](Cc1ccc(O)cc1)NC(=O)[C@H](CC(=O)O)NC(=O)[C@H](CO)NC(=O)[C@@H](NC(=O)[C@](C)(Cc1ccccc1F)NC(=O)[C@@H](NC(=O)CNC(=O)[C@H](CCC(=O)O)NC(=O)C(C)(C)NC(=O)[C@@H](N)Cc1ccc(O)cc1)[C@@H](C)O)[C@@H](C)O)[C@@H](C)CC)[C@@H](C)CC)C(=O)N[C@@H](CCC(=O)O)C(=O)NCC(=O)NCC(=O)N1CCC[C@H]1C(=O)N[C@@H](CO)C(=O)N[C@@H](CO)C(=O)NCC(=O)N[C@@H](C)C(=O)N1CCC[C@H]1C(=O)N1CCC[C@H]1C(=O)N1CCC[C@H]1C(=O)N[C@@H](CO)C(=O)N[C@@H](CCCCNC(=O)COCCOCCNC(=O)CC[C@H](NC(=O)CCCCCCCCCCCCC(=O)O)C(=O)O)C(N)=O [Example 368]
hGIPR; HEK293, cAMP, 37° C., 0.1% bovine casein, percent of maximal response to GIP(1-42)NH2, arithmetic mean, read-out: hGIPR Emax, % ± SEM
  Emax: 105%
hGIPR; [1]
  EC50: 0.0271 nM
hGCGR; [2]
  EC50: > 9950 nM
hGLP-1R; [3]
  EC50: 0.411 nM
